Reference: patent US10765631B2, “Liposomes for modulating Wiskott-Aldrich syndrome protein” (BAR-ILAN UNIVERSITY, priority 2013, dated 2020)

T1: WASp (Homo sapiens, UniProt P42768)
T1 construct: expressed in transfected cells; host or cells: 293T cells, calcium-phosphate transfection
T1 sequence (P42768 1-502): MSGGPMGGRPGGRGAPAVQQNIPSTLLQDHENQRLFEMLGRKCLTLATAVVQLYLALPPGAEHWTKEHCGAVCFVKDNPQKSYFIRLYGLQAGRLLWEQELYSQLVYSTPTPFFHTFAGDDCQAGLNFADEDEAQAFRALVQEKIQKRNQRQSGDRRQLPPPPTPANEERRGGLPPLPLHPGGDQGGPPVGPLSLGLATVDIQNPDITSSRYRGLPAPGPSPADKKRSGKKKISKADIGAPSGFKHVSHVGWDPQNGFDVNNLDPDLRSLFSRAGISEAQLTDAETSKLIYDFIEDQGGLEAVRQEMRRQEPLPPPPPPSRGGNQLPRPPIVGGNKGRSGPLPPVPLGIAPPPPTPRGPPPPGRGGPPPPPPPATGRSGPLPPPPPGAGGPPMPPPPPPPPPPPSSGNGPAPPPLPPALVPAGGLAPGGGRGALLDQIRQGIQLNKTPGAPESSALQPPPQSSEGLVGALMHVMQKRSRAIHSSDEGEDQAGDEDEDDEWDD

B1: Mix: mixture of the double-stranded siRNA duplexes of SEQ ID NOS. 1-4 (nucleic acid)
chain 1: UGACUGAGUGGCUGAGUUA
chain 2: GACCUAGCCCAGCUGAUAA
chain 3: GAAUGGAUUUGACGUGAAC
chain 4: GCCGAGACCUCUAAACUUA
modifications: listed as RNA, chemistry not given here
B2: N.S. siRNA: nonsense siRNA control made from duplexes of SEQ ID NO. 9-12 (Table 5) (nucleic acid)
chain 1: UAGCGACUAAACACAUCAAUAGGCUAUGAAGAGAUAC
chain 2: AUGUAUUGGCCUGUAUUAG
chain 3: AUGAACGUGAAUUGCUCAA
chain 4: UGGUUUACAUGUCGACUAA
modifications: listed as RNA, chemistry not given here

Key:
WASp [1] = target: T1, WASp; assay: YFP-WASp expression in 293T cells treated with compounds, densitometric Western blot analysis; type: cell-based; details: for effect on WASp expression in cells: 293T cells transfected with YFP-WASp; for Relative expression: YFP-WASp expression in transfected 293T cells relative to DMSO solvent control, compound 10-80 μM, overnight
Experimental: Compounds were obtained and from ChemBridge Corporation. San Diego, Calif., USA. Of the compounds obtained, 14 were considered potential agents for modulating WASp expression, by their potential to bind to WASp. The 14 compounds were tested in 293T cells using the following procedure.
The compounds were individually dissolved in DMSO to make a stock solution of 20 millimolar (mM) and kept stored at −20° C. 293T cells were prepared to mid log phase, ˜60-80% confluence, and were transfected with 15 μg of yellow-fluorescent protein, YFP-WASp plasmid (6023), using a Calcium-phosphate transfection protocol. Cells were collected and counted. 1-2×10^6 cells per sample in 6-well supplemented with 2-4 ml complete (10% FCS) DMEM medium (0.5×10^6 cells/ml). Cells were plated in 6 wells (0.5×10^6 cells/ml×Number of samples) and pre-incubate at 37°, 5% CO2 for at least 4 h (for the cells to adhere. 1 ml of the medium in which the cells were grown is taken, and added to the compound (10-80 μM). The medium, with the compound, was added back to the cells in the plate, drop-wise. Cells were incubated overnight at 37° C., 5% CO2. Densitometric analysis of YFP-WASp expression in the cells treated with the compounds, using Western blot analysis. The compounds with a relative 1.5-fold change (either increase or decrease) of expression relative cells which were exposed to DMSO solvent control, are listed in table 2 below. Table 2 lists the compounds' modulation of WASp expression levels as a function of relative expression of WASp in relation to control.

WASp [2] = assay: WASp gene silencing by siRNA in T cell leukemic cells, Western blot; type: cell-based
Experimental: As shown in the previous examples, WASp is overexpressed in malignant cells. Gene silencing of WASp expression using siRNA was tested. WASp was silenced using commercially available siRNA oligonucleotides. A mixture of the following oligonucleotides, each in the form of double-stranted siRNA duplex with its corresponding sequence at an amount of 500 pico-mole was introduced to 1×10^7 cells:
These experiments were performed in T cell leukemic cells. Silencing efficiency of about 90% was achieved 48 hours after transfection, when compared to non-specific (N.S) siRNA-treated cells.
A number of siRNA duplexes were tested in cells as in example 1E. The following double-stranded siRNA sequences were used: SEQ ID NO. 1 and its complementary sequence; SEQ ID NO. 2 and its complementary sequence; SEQ ID NO. 3 and its complementary sequence; SEQ ID NO. […] and its complementary sequence (designated as 1-4). 500 picomole of each double-stranded siRNA was used. In addition, a nonsense siRNA sequence (designated as “N.S. siRNA”) was used as a control. Control N.S. siRNA was made from 125 duplexes of each of the siRNA molecules in Table 5:
In addition, a mixture of the siRNAs comprising SEQ ID NOS. 1-4 (designated as “Mix”) was also used, comprising 125 picomole of each. Upon analysis with Western blot, it was shown that all siRNA duplexes were effective in downregulating WASp, with the siRNA of SEQ. ID NO.

Molecule | effect on WASp expression in cells (WASp [1]) | Relative expression (WASp [1]) | Silencing efficiency (WASp [2]; 48 hours after transfection, T cell leukemic cells, 500 pico-mole to 1×10^7 cells, compared to non-specific (N.S) siRNA-treated cells) | downregulating WASp (WASp [2]; Western blot, 500 picomole double-stranded siRNA, cells as in example 1E, FIG. 2)
COc1ccc(CN2C(=O)N(CC(C)C)C3(CCN(C4Cc5ccccc5C4)CC3)C2=O)cc1 [Compound 13, 8-(2,3-dihydro-1H-inden-2-yl)-1-isobutyl-3-(4-methoxy-benzyl)-1,3,8-triazaspiro[4.5] decane-2,4-dione] | effective in decreasing WASp expression | 0.3 | – | –
CC(=O)N[C@H]1C[C@@H](c2ccc3c(c2)nnn3C)O[C@@H](c2ccc(Cl)cc2)C1 [Compound 6, N-[(2R,4R,6S)-2-(4-chloro-phenyl)-6-(1-methyl-1H-1,2,3-benzotriazol-5-yl)tetrahydro-2H-pyran-4-yl]acetamide] | increase WASp expression | 6.7 | – | –
Cc1cc(C)n(C2CCN(C(=O)c3cc(COc4ccccc4)[nH]n3)C2)n1 (centres unmarked) [Compound 7, 3,5-dimethyl-1-(1-{[5-(phenoxy-methyl)-1H-pyrazol-3-yl]carbonyl}pyrrolidin-3-yl)-1H-pyrazole] | increase WASp expression | 2.1 | – | –
COCC1CCN(c2ccc(C(=O)N3CCC(N4CCOCC4)CC3)cn2)C1 (centres unmarked) [Compound 4, 4-[1-({6-[3-(methoxymethyl)pyrrolidin-1-yl]pyridin-3-yl}carbonyl)piperi-din-4-yl]morpholine] | increase WASp expression | 1.5 | – | –
COc1ccccc1-c1cccc(C(=O)NC(C)Cc2ccccn2)c1 (centres unmarked) [Compound 14, 2′-methoxy-N-(1-methyl-2-pyridin-2-ylethyl)biphenyl-3-carboxamide] | effective in decreasing WASp expression | 0.5 | – | –
CC(C)c1n[nH]c2c1CN(C(=O)c1cccc(C#CC(C)(C)O)c1)CC2 [Compound 10, 4-{3-[(3-isopropyl-1,4,6,7-tetrahydro-5H-pyrazolo[4,3-c]pyridin-5-yl)carbonyl]phenyl}-2-methylbut-3-yn-2-ol] | effective in decreasing WASp expression | 0.6 | – | –
B1 | – | – | about 90% | –
B2 | – | – | – | ineffective in downregulating WASp
